Patent US11547737B2, “Compositions and methods for treating virus infection” (priority 2020, dated 2023)
Read-outs that look alike come from different tables or passages of the source.

Tests used:
[1] = tested on: COVID-19; conditions: hospitalized COVID-19 patients, compared to standard of care, interim trial results; cited from earlier work
[2] = in vitro; conditions: African green monkey (Cercopithecus aethiops)
[3] = tested on: SARS-CoV-2; test: microbe, parasite or virus in culture; type: cell-based; conditions: for EC50: read-out: Effective drug concentration (EC50); for antiviral activity: used alone
[4] = tested on: Zn influx into the cell; test: Zn penetration into the cells; type: cell-based
[5] = Solid form stability of CHP forms by XRPD (storage, drying, DVS)
[6] = tested on: RTCs of equine arteritis virus (EAV); conditions: in vitro; cited from earlier work
[7] = tested on: RTCs of SARS-CoV; conditions: in vitro; cited from earlier work
[8] = tested on: Vero cells
[9] = physchem
[10] = muscle tissues and intestinal segments; cited from earlier work

SMILES: CCN(CCO)CCCC(C)Nc1ccnc2cc(Cl)ccc12 (stereo not drawn) [hydroxychloroquine]
- reduction in the mortality [1]: little or no reduction

SMILES: CCN(CC)CCCC(C)Nc1ccnc2cc(Cl)ccc12 (stereo not drawn) [Chloroquine, chloroquine]
- CC50 [2]: > 100 µM
- EC50 ([3]; Severe acute respiratory syndrome coronavirus 2, Vero): 13 µM
- Zn penetration into the cells [4]: an increase of Zn penetration into the cells

SMILES: O=C1N[C@@H](Cc2cnc[nH]2)C(=O)N2CCC[C@@H]12 [Pattern 1]
- form by XRPD ([5]; Pattern 1 post dynamic vapor sorption (DVS)): changed to Pattern 2

SMILES: [Zn+2] [Zn, zinc]
- RNA-synthesizing activity of the RTCs [6]: efficiently inhibits
- EC50 ([3]; Vero cells, SARS-CoV-2 MOI 0.1, concentration inhibiting virus replication by 50%): 480 µM
- antiviral activity ([3]; at concentrations 200 μmol or lower): does not show any antiviral activity
- RNA-synthesizing activity of the RTCs [7]: efficiently inhibits
- cytotoxicity (cell killing) ([8]; at the concentration of 600 μmol): kills the cells
- CC50 ([8]; read-out: Cytotoxicity (CC50), Vero cells, concentration resulting in 50% cell death): 486 µM

SMILES: O=C1N[C@@H](Cc2cnc[nH]2)C(=O)N2CCC[C@@H]12 [CHP hydrate, cyclo(-His-Pro) hydrate]
- form by XRPD ([5]; post various temperature DVS (VT-DVS)): a mixture of Patterns 1 and 2
- change in form by XRPD ([5]; post-DVS, 40% RH): no change in form
- change in form by XRPD ([5]; stored 40° C./75% RH, seven days): no change
- change in form by XRPD ([5]; stored at 80° C., seven days): converted to Pattern 1
- change in form by XRPD ([5]; stored at ambient light, seven days): no change
- pKa [9]: ~6.4

SMILES: O=C1N[C@@H](Cc2cnc[nH]2)C(=O)N2CCC[C@@H]12 [CHP, Cyclo(-His-Pro)]
- Selectivity index (SI) CC50/EC50 ([3]; calculated CC50/EC50): ≥ 1.6
- antiviral activity ([3]; at a concentration of 10 μmol or lower): does not show antiviral activity
- antiviral activity ([3]; at the concentration of 30 mmol): shows an antiviral activity
- zinc absorption and uptake [10]: enhanced zinc absorption and uptake
